Data from the supplement of paper PMC4862054.

How the values were obtained:
Details in all cases: incubation time: 72 h
BT-474 [1] = test: normalised viability (% of control), CellTiter-Blue; higher = more viable cells (about 100 = DMSO control)
Description: (§1)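 DSRT, CellTiter-Blue viability, 72 h incubation. Signal is normalised to DMSO and benzethonium chloride controls. Value is the normalised response at dose 3.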

CAL-120 [2] = test: as above
Description: as §1

CAL-148 [3] = test: as above
Description: as §1

DU-4475 [4] = test: as above
Description: as §1

HCC1937 [5] = test: as above
Description: as §1

Hs578T [6] = test: as above
Description: as §1

MDA-MB-436 [7] = test: as above
Description: as §1

MDA-MB-453 [8] = test: as above
Description: as §1

MDA-MB-468 [9] = test: as above
Description: as §1

MFM-223 [10] = test: as above
Description: as §1

SK-BR-3 = test: as above
Description: as §1

BT-474 [11] = test: drug sensitivity score (DSS), CellTox Green (DSS (AUC-based score)); higher = stronger drug effect (viability inhibition or cytotoxicity); extreme values may be limits of the assay
Outline: (§2)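 In 384-well plates, compound was laid out at 5 concentrations in 10-fold steps over a 10,000-fold range specific to each compound, and breast cancer cell lines were seeded on top in 20 µl suspension for a 72 h incubation. CellTox Green fluorescence and then CellTiter-Glo luminescence were read, and each plate was normalised to 0.1 % DMSO and a positive kill control. The drug sensitivity score was calculated from the area under the fitted dose-response curve.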

BT-549 = test: as above
Outline: as §2

CAL-120 [12] = test: as above
Outline: as §2

CAL-148 [13] = test: as above
Outline: as §2

CAL-51 = test: as above
Outline: as §2

CAL-85-1 = test: as above
Outline: as §2

DU-4475 [14] = test: as above
Outline: as §2

HCC1143 = test: as above
Outline: as §2

HCC1599 = test: as above
Outline: as §2

HCC1937 [15] = test: as above
Outline: as §2

HDQ-P1 = test: as above
Outline: as §2

Hs578T [16] = test: as above
Outline: as §2

MCF-10A = test: as above
Outline: as §2

MDA-MB-436 [17] = test: as above
Outline: as §2

MDA-MB-453 [18] = test: as above
Outline: as §2

MDA-MB-468 [19] = test: as above
Outline: as §2

MFM-223 [20] = test: as above
Outline: as §2

| Structure (SMILES) | normalised viability (BT-474 [1]; 10 nM) | normalised viability (CAL-120 [2]; 10 nM) | normalised viability (CAL-148 [3]; 1 nM) | normalised viability (DU-4475 [4]; 1 nM) | normalised viability (HCC1937 [5]; 10 nM) | normalised viability (Hs578T [6]; 10 nM) | normalised viability (MDA-MB-436 [7]; 10 nM) | normalised viability (MDA-MB-453 [8]; 1 nM) | normalised viability (MDA-MB-468 [9]; 10 nM) | normalised viability (MFM-223 [10]; 10 nM) | normalised viability (SK-BR-3; 10 nM) | drug sensitivity score (BT-474 [11]) | drug sensitivity score (BT-549) | drug sensitivity score (CAL-120 [12]) | drug sensitivity score (CAL-148 [13]) | drug sensitivity score (CAL-51) | drug sensitivity score (CAL-85-1) | drug sensitivity score (DU-4475 [14]) | drug sensitivity score (HCC1143) | drug sensitivity score (HCC1599) | drug sensitivity score (HCC1937 [15]) | drug sensitivity score (HDQ-P1) | drug sensitivity score (Hs578T [16]) | drug sensitivity score (MCF-10A) | drug sensitivity score (MDA-MB-436 [17]) | drug sensitivity score (MDA-MB-453 [18]) | drug sensitivity score (MDA-MB-468 [19]) | drug sensitivity score (MFM-223 [20]) | normalised viability (BT-474 [1]; 100 nM) | normalised viability (CAL-120 [2]; 100 nM) | normalised viability (CAL-148 [3]; 10 nM) | normalised viability (DU-4475 [4]; 10 nM) | normalised viability (HCC1937 [5]; 100 nM) | normalised viability (Hs578T [6]; 100 nM) | normalised viability (MDA-MB-436 [7]; 100 nM) | normalised viability (MDA-MB-453 [8]; 10 nM) | normalised viability (MDA-MB-468 [9]; 100 nM) | normalised viability (MFM-223 [10]; 100 nM) | normalised viability (SK-BR-3; 100 nM) |
| --- | --- | --- | --- | --- | --- | --- | --- | --- | --- | --- | --- | --- | --- | --- | --- | --- | --- | --- | --- | --- | --- | --- | --- | --- | --- | --- | --- | --- | --- | --- | --- | --- | --- | --- | --- | --- | --- | --- | --- |
| CO[C@H]1C[C@@H]2CC[C@@H](C)[C@@](O)(O2)C(=O)C(=O)N2CCCC[C@H]2C(=O)O[C@H]([C@H](C)C[C@@H]2CC[C@@H](OP(C)(C)=O)[C@H](OC)C2)CC(=O)[C@H](C)/C=C(\C)[C@@H](O)[C@@H](OC)C(=O)[C@H](C)C[C@H](C)/C=C/C=C/C=C/1C [Ridaforolimus] | 60.7% | 48.2% | 60.1% | 78.2% | 58.9% | 50.4% | 85.6% | 44.5% | 61.2% | 45.2% | 48.4% | 0 | 0 | 0 | 0 | 0 | 0 | 0 | 0 | 0 | 0 | 12.6 | 0 | 0 | 4.09 | 0 | 0 | 0 |  |  |  |  |  |  |  |  |  |  |  |
| c1ccc2c(CCNc3ccc(Nc4ccncc4)cc3)c[nH]c2c1 [Serdemetan] |  |  |  |  |  |  |  |  |  |  |  | 0 | 0 | 0 | 6.44 | 4.55 | 0 | 1.51 | 0 | 0 | 0 | 0 | 0 | 0 | 0 | 0 | 0 | 1.92 | 111% | 81.9% | 83.5% | 103% | 95.2% | 77.2% | 113% | 96.7% | 108% | 92.4% | 79.7% |
| CN(C)CCOc1ccc(/C(=C(/CCCl)c2ccccc2)c2ccccc2)cc1 [Toremifene] |  |  |  |  |  |  |  |  |  |  |  | 2.47 | 0 | 0 | 0 | 0 | 0 | 0 | 2.33 | 0 | 5.17 | 0 | 0 | 0 | 0 | 0 | 4.22 | 0 | 126% | 93.7% | 108% | 106% | 97.5% | 85.4% | 110% | 118% | 106% | 99.8% | 88.8% |
| CC(C)C[C@@H](C(=O)N[C@H](C(=O)OC1CCCC1)c1ccccc1)[C@H](O)C(=O)NO [Tosedostat] |  |  |  |  |  |  |  |  |  |  |  | 2.81 | 9.06 | 13.6 | 0 | 15.2 | 21.8 | 0 | 1.52 | 0 | 0 | 10.1 | 1.64 | 0 | 10.1 | 0 | 20.1 | 0 | 110% | 66.8% | 91.2% | 79.7% | 67.9% | 94.2% | 96.2% | 99.1% | 64.6% | 79.8% | 88.7% |
| COc1cc2/c(=N/c3ccc(Br)cc3F)nc[nH]c2cc1OCC1CCN(C)CC1 [Vandetanib] |  |  |  |  |  |  |  |  |  |  |  | 0 | 0 | 0 | 0 | 0 | 0 | 0 | 0 | 0 | 0 | 1.32 | 0 | 0 | 0 | 0 | 0 | 0 | 90.6% | 98.3% | 92% | 110% | 81.8% | 67.8% | 71.3% | 104% | 93.8% | 112% | 63.8% |
| COCC[n+]1c2c(n(Cc3cnccn3)c1C)C(=O)c1ccccc1C2=O [YM155] |  |  |  |  |  |  |  |  |  |  |  | 33.6 | 20.2 | 39 | 29.4 | 28.2 | 42.2 | 3.34 | 23.5 | 11.8 | 29.5 | 30.2 | 5.6 | 34.7 | 27.2 | 12.2 | 37.3 | 11.4 | 1.04% | 5.35% | 61.4% | 110% | 3.81% | 47.6% | 2.36% | 44.7% | 0.74% | 26.1% | 1.25% |
